Consider seven molecules from article PMC10254193, “Early Molecular Insights into Thanatin Analogues Binding to A. baumannii LptA” (Molecules, 2023).

Values after ≈ are worked out from the molar mass of the structure shown. Bridge positions count the residues as written; N and C are the ends. Square brackets hold non-standard residues; d marks the D form. Peptide text beside a SMILES is read from it. Hyp = O=C(O)[C@@H]1C[C@@H](O)CN1; Pen = CC(C)(S)[C@H](N)C(=O)O; dDab = NCC[C@@H](N)C(=O)O; Nle = CCCC[C@H](N)C(=O)O; Dab = NCC[C@H](N)C(=O)O

Test [1] has as its system A. baumannii DSM 30008. The class given is cell-based. From the text:
Table 1 LptA sequence identity to E. coli and MIC values (µg/mL). | column: A. baumannii DSM 30008

The target in test [2] is LptAm(Ab)2.0. Kind of test: Fluorescence polarization competition (indirect) binding assay, displacement of than-FL. The note with it: competition FP, than-FL 10 µM, triplicate; for IC50: 1:1 LptAm(Ab)2.0 and than-FL, FP buffer pH 7, overnight 4 °C, read at 25 °C, read-out: IC50 ± 95CI; for Ki: from IC50 and KD of than-FL by Cheng–Prusoff equation, read-out: KI ± 95CI. More on the design: species or system A. baumannii. The method, then: The dissociation constant (KD) of than-FL was first determined in a direct binding assay and measured as 3.7 ± 0.5 µM (Figure 5, left) (Table 3). Subsequently, competitive binding assays were performed to determine the inhibition constants (KIs) of the unlabeled thanatin derivatives 1, 2, 5, 6, and 7. For each thanatin derivative tested, a serial dilution was prepared in triplicate on a single 96-well plate, to which a 1:1 mixture of LptAm(Ab)2.0 and than-FL was added. […] Determination of the KIs was achieved from the empirically derived IC50 values and KD of than-FL using the Cheng–Prusoff equation [27].
Protein stocks were purified and concentrated in SEC buffer (50 mM NaPi pH 7, 150 mM NaCl), and if necessary diluted to the desired concentration using FP buffer (50 mM NaPi pH 7, 150 mM NaCl, 0.05% Tween20). Peptide stocks and fluorescently labeled peptide stocks were made in FP buffer. A 1:1 serial dilution of 24 wells was prepared first by adding 100 µL of the unlabeled protein (e.g., LptAm(Ab)2.0) or peptide (e.g., 1, 2, 5–7), starting at high concentrations, 100–500 µM, in well one. Then, 50 µL was taken from the first well and added to 50 µL of FP buffer in the subsequent well, homogenized and repeated for the remaining of the 24-well series. Then, 50 µL of 2x stock of the fluorescently labeled thanatin (than-FL) was added to the dilution series. For the direct binding assays, 10 µM than-FL was used as the 2x stock, and for the indirect binding assays, a 1:1 mixture of 20 µM Lpt protein variant and 20 µM than-FL was used as the 2x stock; the final working concentrations of the than-FL were 5 µM and 10 µM, respectively. Plates were left to incubate overnight at 4 °C before fluorescence polarization (FP) measurements. Anisotropy was measured using the Tecan Safire^2 plate reader using a 10 nm bandwidth and setting the excitation and emission wavelengths to 635 nm and 670 nm, respectively. The G-factor (G) was also determined empirically as 1.094 for the instrument and included in all the anisotropy calculations.
For the indirect binding assays, r was calculated in the same manner as the direct binding assays. To control for non-specific binding between than-FL and competitors, than-FL alone was added to a replicate dilution series of the unlabeled peptide on the same plate. The control was subtracted from r to yield r’. Data were fit to a sigmoidal interpolation model on GraphPad Prism 9, and an IC50 was generated for each unlabeled peptide or protein measured. The inhibition constants (Kis) were calculated using the Cheng–Prusoff equation, Ki=IC50×1+LT/KD^−1 , in which the total concentration of than-FL (LT) was used as well as the KD previously derived from the peptide’s cognate direct binding assay.
In general terms: In fluorescence polarisation assays a small probe gives low polarisation when free and higher when bound to something large.

Test [3] relates to E. coli ATCC 25922. The class given is cell-based. The text has this:
Table 1 LptA sequence identity to E. coli and MIC values (µg/mL). | column: E. coli ATCC 25922

Test [4] relates to K. pneumoniae ATCC 43816. It counts as cell-based. From the text:
Table 1 LptA sequence identity to E. coli and MIC values (µg/mL). | column: K. pneumoniae ATCC 43816

Test [5] deals with P. aeruginosa ATCC 27853. The class given is cell-based. The text has this:
Table 1 LptA sequence identity to E. coli and MIC values (µg/mL). | column: P. aeruginosa ATCC 27853

The target of test [6] is LptAm(Ab)2.0. Kind of test: Fluorescence polarization direct binding assay. More on the design: species or system A. baumannii. Particulars: direct FP, than-FL 5 µM, LptAm(Ab)2.0 serial dilution, FP buffer 50 mM NaPi pH 7, 150 mM NaCl, 0.05% Tween20, overnight 4 °C, read at 25 °C, triplicate; read-out: KD ± 95CI. The text has this:
As previously mentioned, a second A. baumannii LptA protein construct (LptAm(Ab)2.0), truncated at G159 of the C-terminus had improved monomeric behavior in solution and was used for binding affinity assays. The protein underwent routine checks for purity via a Coomassie-stained SDS-PAGE (Figure S1), and its binding to 7 in a titration series was observed using analytical SEC (Figure 2B), before proceeding with fluorescence polarization (FP). The fluorescent label, Alexa647, was conjugated to thanatin at the first position, as described in [24]. […]
Protein stocks were purified and concentrated in SEC buffer (50 mM NaPi pH 7, 150 mM NaCl), and if necessary diluted to the desired concentration using FP buffer (50 mM NaPi pH 7, 150 mM NaCl, 0.05% Tween20). […] Plates were left to incubate overnight at 4 °C before fluorescence polarization (FP) measurements. Anisotropy was measured using the Tecan Safire^2 plate reader using a 10 nm bandwidth and setting the excitation and emission wavelengths to 635 nm and 670 nm, respectively. The G-factor (G) was also determined empirically as 1.094 for the instrument and included in all the anisotropy calculations.
For direct binding assays, fluorescence anisotropy (r) was calculated using the parallel and perpendicular polarized intensities using the equation r=I∥−I⊥∗G/I∥+2I⊥∗G . […]

The target in test [7] is than-FL (fluorescently labeled thanatin, Alexa647). Kind of test: fluorescence polarisation; direct binding: LptAm(Ab)2.0 serially diluted, than-FL 5 µM; 50 mM NaPi pH 7, 150 mM NaCl, 0.05% Tween20; incubated overnight at 4 °C, executed at ambient temperature (25 °C); One site - Total fit.
In test [8] the target is T1, A. baumannii LptAm2.0 (LptAm(Ab)2.0) (A. baumannii ATCC 17978, UniProt V5VEZ9 33-159).
T1 construct: LptA of A. baumannii ATCC 17978, L33 to G159: as LptAm(Ab)1.0 with a further 5-residue truncation at the C-terminus; source: E. coli BL21(DE3), purified (two-step NiNTA with TEV cleavage); not shown: GB1 (protein G B1 domain), N-terminal, cleaved; His tag, N-terminal, cleaved
T1 sequence: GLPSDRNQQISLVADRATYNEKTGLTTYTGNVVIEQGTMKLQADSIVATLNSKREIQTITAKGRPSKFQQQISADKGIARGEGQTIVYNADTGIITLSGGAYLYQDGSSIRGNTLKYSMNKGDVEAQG
Kind of test: fluorescence polarisation; competition: unlabeled peptide serially diluted, 1:1 mixture of LptAm(Ab)2.0 and than-FL added (than-FL 10 µM final); 50 mM NaPi pH 7, 150 mM NaCl, 0.05% Tween20; KI from IC50 by the Cheng-Prusoff equation. Particulars: both partners purified.

As for `CC[C@H](C)[C@H](NC(=O)[C@@H](NC(=O)[C@@H]1C[C@@H](O)CN1C(=O)[C@@H](N)C(C)C)[C@@H](C)CC)C(=O)N[C@@H](Cc1ccc(O)cc1)C(=O)N[C@@H]1C(=O)N[C@@H](CC(N)=O)C(=O)N[C@@H](CCCNC(=N)N)C(=O)N[C@@H](CCN)C(=O)N[C@@H]([C@@H](C)O)C(=O)N[C@H](CCN)C(=O)N[C@@H](CCCCN)C(=O)N[C@H](C(=O)N[C@@H](CCN)C(=O)N[C@@H](CCN)C(=O)N[C@@H](Cc2ccc(O)cc2)C(=O)O)CSSC1(C)C` [Peptide 5] (H-V[Hyp]IIY[Pen]NR[Dab]T[dDab]KC[Dab][Dab]Y-OH; disulfide 6-13; N-terminus and C-terminus assumed), the minimal inhibitory concentration (MIC) in test [1] was greater than 32 µg/mL; in test [3], 0.063 µg/mL (≈ 0.0329 µM); in test [4], 0.250 µg/mL (≈ 0.131 µM); in test [5], greater than 32 µg/mL. Also, the half-maximal inhibitory concentration (IC50) in test [2] turned out to be 11.5 ± 0.7 µM. Also, the Ki in test [2] worked out at 3.1 ± 0.2 µM.
Regarding “Than-FL: fluorescently labeled thanatin, Alexa647 conjugated at the first position; reporter in all FP assays”, the equilibrium dissociation constant (Kd) in test [6] turned out to be 3.7 ± 0.5 µM.
Take `CC[C@H](C)[C@H](NC(=O)[C@@H]1C[C@@H](O)CN1C(=O)[C@@H](N)C(C)C)C(=O)N[C@H](C(=O)N[C@@H](Cc1ccc(O)cc1)C(=O)N[C@@H]1C(=O)N[C@@H](CC(N)=O)C(=O)N[C@@H](CCCNC(=N)N)C(=O)N[C@@H](CCN)C(=O)N[C@@H]([C@@H](C)O)C(=O)N[C@H](CCN)C(=O)N[C@@H](CCCCN)C(=O)N[C@H](C(=O)N[C@@H](CCN)C(=O)N[C@@H](CCCNC(=N)N)C(=O)N[C@@H](Cc2ccc(O)cc2)C(=O)O)CSSC1(C)C)[C@@H](C)O` [Peptide 6] (H-V[Hyp]ITY[Pen]NR[Dab]T[dDab]KC[Dab]RY-OH; disulfide 6-13; N-terminus and C-terminus assumed): the MIC is reported as greater than 32 µg/mL in test [1], 0.125 µg/mL (≈ 0.0638 µM) in test [3], 0.250 µg/mL (≈ 0.128 µM) in test [4] and greater than 32 µg/mL in test [5]. In test [2], the IC50 is 15.4 ± 1.3 µM. Further, in test [2], the inhibition constant Ki is 4.1 ± 0.4 µM.
Turning to `CCCC[C@H](NC(=O)[C@H](CCCNC(=N)N)NC(=O)[C@H](CCN)NC(=O)[C@@H]1CSSC[C@H](NC(=O)[C@H](Cc2ccc(O)cc2)NC(=O)[C@@H](NC(=O)[C@@H](NC(=O)[C@@H]2CCCN2C(=O)[C@@H](NC(=O)[C@@H]2CCCN2C(=O)[C@H](CCCCN)NC(=O)[C@@H](N)CCCCN)C(C)C)[C@@H](C)CC)[C@@H](C)CC)C(=O)N[C@@H](CC(N)=O)C(=O)N[C@@H](CCCNC(=N)N)C(=O)N[C@@H](CCCNC(=N)N)C(=O)N[C@@H]([C@@H](C)O)C(=O)NCC(=O)N[C@@H](CCCCN)C(=O)N1)C(=O)O` [Peptide 1] (H-KKPVPIIYCNRRTGKC[Dab]R[Nle]-OH; disulfide 9-16), the MIC in test [1] is reported as greater than 32 µg/mL; in test [3] it was 0.063 µg/mL (≈ 0.0281 µM); in test [4], 0.250 µg/mL (≈ 0.111 µM); in test [5], greater than 64 µg/mL.
As to `CC[C@H](C)[C@H](NC(=O)[C@@H](NC(=O)[C@@H]1CCCN1C(=O)[C@@H](NC(=O)[C@@H]1CCCN1C(=O)[C@H](CCCCN)NC(=O)[C@@H](N)CCCCN)C(C)C)[C@@H](C)CC)C(=O)N[C@@H](Cc1ccc(O)cc1)C(=O)N[C@@H]1C(=O)N[C@@H](CC(N)=O)C(=O)N[C@@H](CCCNC(=N)N)C(=O)N[C@@H](CCN)C(=O)N[C@@H]([C@@H](C)O)C(=O)N[C@H](CCN)C(=O)N[C@@H](CCCCN)C(=O)N[C@H](C(=O)N[C@@H](CCN)C(=O)N[C@@H](CCCNC(=N)N)C(=O)N[C@@H](Cc2ccc(O)cc2)C(=O)O)CSSC1(C)C` [Peptide 2] (H-KKPVPIIY[Pen]NR[Dab]T[dDab]KC[Dab]RY-OH; disulfide 9-16; N-terminus and C-terminus assumed), the MIC in test [1] was greater than 32 µg/mL; in test [3] it was 0.031 µg/mL (≈ 0.0134 µM); in test [4], 0.125 µg/mL (≈ 0.0541 µM); in test [5], greater than 32 µg/mL. Besides, the IC50 in test [2] is 24.1 ± 6.3 µM. Moreover, the Ki in test [2] is 6.5 ± 1.7 µM.

B1: A. baumannii LptAm2.0 (LptAm(Ab)2.0) (domain or fragment)
chain: T1 sequence
As to B1, in test [7], the Kd came to 3.7 µM.

B2: Thanatin (peptide)
peptide: GSKKPVPIIYCNRRTGKCQRM
notes: thanatin, the naturally occurring 21-mer; positions 1′-21′; also called native thanatin
Turning to B2, in test [8], the concentration for half-maximal inhibition (IC50) came out at 11.8 µM and the Ki stood at 3.2 µM.

Broadly, the MIC is the smallest concentration in the dilution series that meets the test's criterion for growth inhibition. A low value points to a more susceptible organism. For orientation: IC50 means the concentration that gives 50% inhibition. As a reminder, the Ki is the equilibrium dissociation constant of an inhibitor or competing ligand from its target. Broadly, the Kd is the free concentration of one partner at which half of the binding sites on the other are occupied at equilibrium, for simple one-to-one binding.
